According to article PMC3445516 (PLoS ONE, 2012):
Read-outs that look alike come from different tables or passages of the source.

How the values were obtained:
Assay in all cases: Ambit kinase profiling, competition binding
EGFR(L747-T751del,Sins) = system: EGFR(L747-T751del,Sins); set-up: species or system human; settings: for % Competition: 10 µM
Procedure: (§1) Also included in the kinase profile are four isoforms of PKC (δ, ε, η, θ) and eight isoforms of CAMKs (CAMKIα, δ, γ; CAMKIIα, β, δ, γ; CAMK4).
(§2) The global kinase profiling experiment was performed by Ambit Biosciences.

CAMKIα = molecular target: T1, CAMKIα (Homo sapiens, UniProt Q14012); settings: for competition: CAMKIα, 10 µM
T1 construct: purchased Ambit Biosciences (KINOMEscan)
Procedure: as §1, §2

BRAF(V600E) = molecular target: T2, BRAF(V600E) (Homo sapiens, UniProt P15056, V600E)
T2 construct: purchased Ambit Biosciences (KINOMEscan)
Procedure: as §1, §2

MARK2 = molecular target: T3, MARK2 (Homo sapiens, UniProt Q7KZI7)
T3 construct: purchased Ambit Biosciences (KINOMEscan)
Procedure: as §1, §2

PAK7 = molecular target: T4, PAK7 (Homo sapiens, UniProt Q9P286)
T4 construct: purchased Ambit Biosciences (KINOMEscan)
Procedure: as §1, §2

RET(M918T) = molecular target: T5, RET(M918T) (Homo sapiens, UniProt P07949, M918T)
T5 construct: purchased Ambit Biosciences (KINOMEscan)
Procedure: as §1, §2

ERK2 = molecular target: T6, ERK2 (Homo sapiens, UniProt P28482)
T6 construct: purchased Ambit Biosciences (KINOMEscan)
Procedure: as §1, §2

ERK4 = molecular target: T7, ERK4 (Homo sapiens, UniProt P31152)
T7 construct: purchased Ambit Biosciences (KINOMEscan)
Procedure: as §1, §2

EGFR(L858R) = molecular target: T8, EGFR(L858R) (Homo sapiens, UniProt P00533, L858R); settings: for % Competition: 10 µM
T8 construct: purchased Ambit Biosciences (KINOMEscan)
Procedure: as §1, §2

PHKG2 = molecular target: T9, PHKG2 (Homo sapiens, UniProt P15735)
T9 construct: purchased Ambit Biosciences (KINOMEscan)
T9 sequence (P15735 1-406): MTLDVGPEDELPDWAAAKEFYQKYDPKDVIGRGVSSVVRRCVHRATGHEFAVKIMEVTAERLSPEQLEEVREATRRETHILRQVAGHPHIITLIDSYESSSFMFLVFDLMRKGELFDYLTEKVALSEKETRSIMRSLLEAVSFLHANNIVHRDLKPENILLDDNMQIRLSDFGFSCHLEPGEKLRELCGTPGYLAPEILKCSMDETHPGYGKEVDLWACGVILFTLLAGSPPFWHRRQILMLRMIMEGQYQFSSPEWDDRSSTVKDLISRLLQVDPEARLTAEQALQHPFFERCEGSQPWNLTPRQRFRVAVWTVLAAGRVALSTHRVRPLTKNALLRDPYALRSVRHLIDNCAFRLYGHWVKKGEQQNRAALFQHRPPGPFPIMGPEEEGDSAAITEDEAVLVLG
Procedure: as §1, §2

RET = molecular target: T10, RET (Homo sapiens, UniProt P07949)
T10 construct: purchased Ambit Biosciences (KINOMEscan)
Procedure: as §1, §2

CLK2 = molecular target: T11, CLK2 (Homo sapiens, UniProt P49760)
T11 construct: purchased Ambit Biosciences (KINOMEscan)
Procedure: as §1, §2

TGFBR1 = molecular target: T12, TGFBR1 (Homo sapiens, UniProt P36897)
T12 construct: purchased Ambit Biosciences (KINOMEscan)
T12 sequence (P36897 34-503): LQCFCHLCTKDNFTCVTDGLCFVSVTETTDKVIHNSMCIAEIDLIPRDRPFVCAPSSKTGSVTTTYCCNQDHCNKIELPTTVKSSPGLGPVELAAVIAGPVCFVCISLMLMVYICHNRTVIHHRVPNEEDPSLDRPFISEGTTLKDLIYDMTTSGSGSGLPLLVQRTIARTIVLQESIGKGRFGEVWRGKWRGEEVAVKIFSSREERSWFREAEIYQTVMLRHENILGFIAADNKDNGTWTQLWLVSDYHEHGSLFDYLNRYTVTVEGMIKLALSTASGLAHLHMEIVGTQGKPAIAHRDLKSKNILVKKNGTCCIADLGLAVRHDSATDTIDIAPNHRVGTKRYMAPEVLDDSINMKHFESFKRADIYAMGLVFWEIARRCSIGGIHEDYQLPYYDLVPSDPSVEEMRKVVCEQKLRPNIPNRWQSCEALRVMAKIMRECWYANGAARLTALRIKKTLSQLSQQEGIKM
Procedure: as §1, §2

PRKCQ = molecular target: T13, PRKCQ (Homo sapiens, UniProt Q04759)
T13 construct: purchased Ambit Biosciences (KINOMEscan)
Procedure: as §1, §2

JNK3 = molecular target: T14, JNK3 (Homo sapiens, UniProt P53779); settings: for % Competition: 10 µM
T14 construct: purchased Ambit Biosciences (KINOMEscan)
Procedure: as §1, §2

T1 sequence (Q14012 whole entry): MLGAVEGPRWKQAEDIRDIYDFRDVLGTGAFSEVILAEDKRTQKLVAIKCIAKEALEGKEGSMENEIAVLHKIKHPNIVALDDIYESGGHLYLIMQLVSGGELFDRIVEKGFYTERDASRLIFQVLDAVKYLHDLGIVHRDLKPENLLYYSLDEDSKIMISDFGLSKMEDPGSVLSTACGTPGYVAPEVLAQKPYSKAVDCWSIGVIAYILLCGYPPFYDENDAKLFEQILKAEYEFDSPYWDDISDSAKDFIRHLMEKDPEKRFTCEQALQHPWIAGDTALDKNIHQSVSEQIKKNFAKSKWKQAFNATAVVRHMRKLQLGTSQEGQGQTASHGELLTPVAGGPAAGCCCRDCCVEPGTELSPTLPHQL
T6 sequence (P28482 whole entry): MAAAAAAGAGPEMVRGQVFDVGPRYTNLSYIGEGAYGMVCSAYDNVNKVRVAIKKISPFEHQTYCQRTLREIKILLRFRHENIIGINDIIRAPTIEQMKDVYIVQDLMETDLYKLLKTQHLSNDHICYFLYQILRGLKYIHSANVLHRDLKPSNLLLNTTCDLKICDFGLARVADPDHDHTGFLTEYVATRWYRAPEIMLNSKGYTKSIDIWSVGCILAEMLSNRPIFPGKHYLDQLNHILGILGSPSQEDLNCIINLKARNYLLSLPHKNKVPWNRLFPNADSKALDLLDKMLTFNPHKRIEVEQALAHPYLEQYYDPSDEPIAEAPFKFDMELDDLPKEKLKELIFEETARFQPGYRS
T14 sequence (P53779 whole entry): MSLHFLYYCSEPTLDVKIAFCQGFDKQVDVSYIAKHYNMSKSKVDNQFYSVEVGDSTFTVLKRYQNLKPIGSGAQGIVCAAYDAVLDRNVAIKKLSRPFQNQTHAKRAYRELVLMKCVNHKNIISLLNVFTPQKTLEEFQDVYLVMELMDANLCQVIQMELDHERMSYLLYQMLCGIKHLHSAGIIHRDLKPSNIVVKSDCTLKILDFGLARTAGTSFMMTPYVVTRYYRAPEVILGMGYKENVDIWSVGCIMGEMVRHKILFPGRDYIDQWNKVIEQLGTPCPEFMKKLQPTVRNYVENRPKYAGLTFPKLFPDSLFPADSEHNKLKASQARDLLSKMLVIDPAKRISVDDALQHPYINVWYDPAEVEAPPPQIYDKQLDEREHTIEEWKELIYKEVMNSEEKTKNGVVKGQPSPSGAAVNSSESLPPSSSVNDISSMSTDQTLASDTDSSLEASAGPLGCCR
T11 sequence (P49760 whole entry): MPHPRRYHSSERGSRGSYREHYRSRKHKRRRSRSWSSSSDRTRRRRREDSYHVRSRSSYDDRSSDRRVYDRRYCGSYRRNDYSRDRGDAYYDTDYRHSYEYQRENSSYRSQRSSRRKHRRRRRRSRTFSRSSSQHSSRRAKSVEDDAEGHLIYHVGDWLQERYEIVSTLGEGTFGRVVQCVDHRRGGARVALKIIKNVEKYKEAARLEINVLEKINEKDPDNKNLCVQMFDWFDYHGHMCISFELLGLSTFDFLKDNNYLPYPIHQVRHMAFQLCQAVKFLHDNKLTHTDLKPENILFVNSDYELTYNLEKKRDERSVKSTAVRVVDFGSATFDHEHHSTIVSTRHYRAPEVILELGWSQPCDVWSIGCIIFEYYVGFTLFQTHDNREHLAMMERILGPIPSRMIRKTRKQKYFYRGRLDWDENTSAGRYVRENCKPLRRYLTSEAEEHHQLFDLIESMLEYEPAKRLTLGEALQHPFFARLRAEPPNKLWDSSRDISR
T7 sequence (P31152 whole entry): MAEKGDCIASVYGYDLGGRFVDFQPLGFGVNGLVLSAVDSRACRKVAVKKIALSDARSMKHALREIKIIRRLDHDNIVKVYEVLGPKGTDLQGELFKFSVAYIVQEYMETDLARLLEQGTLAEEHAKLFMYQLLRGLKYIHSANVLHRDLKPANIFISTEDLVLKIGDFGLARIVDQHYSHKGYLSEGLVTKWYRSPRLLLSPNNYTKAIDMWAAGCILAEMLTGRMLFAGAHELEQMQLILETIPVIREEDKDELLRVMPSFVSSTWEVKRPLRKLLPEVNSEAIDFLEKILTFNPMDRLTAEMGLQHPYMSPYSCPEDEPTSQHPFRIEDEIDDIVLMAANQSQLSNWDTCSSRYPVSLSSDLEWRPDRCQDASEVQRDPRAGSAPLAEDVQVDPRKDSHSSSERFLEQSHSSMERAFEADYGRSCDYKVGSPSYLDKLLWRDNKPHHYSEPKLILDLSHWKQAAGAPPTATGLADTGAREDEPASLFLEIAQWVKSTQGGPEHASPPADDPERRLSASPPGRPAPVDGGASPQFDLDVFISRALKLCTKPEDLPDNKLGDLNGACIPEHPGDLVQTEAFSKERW
T10 sequence (P07949 29-1114): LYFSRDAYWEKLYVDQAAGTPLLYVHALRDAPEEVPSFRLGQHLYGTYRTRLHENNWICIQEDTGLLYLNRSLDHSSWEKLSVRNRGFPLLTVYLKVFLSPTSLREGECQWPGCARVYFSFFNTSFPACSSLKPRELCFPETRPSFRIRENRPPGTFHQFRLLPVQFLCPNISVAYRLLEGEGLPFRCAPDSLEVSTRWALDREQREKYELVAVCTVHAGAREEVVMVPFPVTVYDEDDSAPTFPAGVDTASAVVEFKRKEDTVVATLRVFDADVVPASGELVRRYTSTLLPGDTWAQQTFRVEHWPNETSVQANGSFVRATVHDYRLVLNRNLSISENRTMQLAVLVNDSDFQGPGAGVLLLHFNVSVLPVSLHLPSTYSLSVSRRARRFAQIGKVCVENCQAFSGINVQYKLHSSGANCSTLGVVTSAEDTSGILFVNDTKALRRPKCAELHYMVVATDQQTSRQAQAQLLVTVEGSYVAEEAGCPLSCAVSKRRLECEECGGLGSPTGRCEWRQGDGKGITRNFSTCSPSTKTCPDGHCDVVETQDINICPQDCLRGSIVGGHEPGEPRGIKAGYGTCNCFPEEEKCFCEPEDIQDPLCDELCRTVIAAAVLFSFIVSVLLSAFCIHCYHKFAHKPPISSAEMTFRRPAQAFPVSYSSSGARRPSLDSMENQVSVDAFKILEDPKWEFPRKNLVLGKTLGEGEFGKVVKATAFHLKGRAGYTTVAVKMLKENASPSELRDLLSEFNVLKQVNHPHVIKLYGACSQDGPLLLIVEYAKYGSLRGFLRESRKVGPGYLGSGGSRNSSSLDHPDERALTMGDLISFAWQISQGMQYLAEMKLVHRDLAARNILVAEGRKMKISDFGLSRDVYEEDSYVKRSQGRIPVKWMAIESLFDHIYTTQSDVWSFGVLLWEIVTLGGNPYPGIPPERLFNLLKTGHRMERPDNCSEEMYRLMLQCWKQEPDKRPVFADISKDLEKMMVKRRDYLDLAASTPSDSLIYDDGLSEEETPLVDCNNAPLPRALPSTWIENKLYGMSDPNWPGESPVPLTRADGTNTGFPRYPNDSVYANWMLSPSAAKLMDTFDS
T2 sequence (P15056 whole entry V600E): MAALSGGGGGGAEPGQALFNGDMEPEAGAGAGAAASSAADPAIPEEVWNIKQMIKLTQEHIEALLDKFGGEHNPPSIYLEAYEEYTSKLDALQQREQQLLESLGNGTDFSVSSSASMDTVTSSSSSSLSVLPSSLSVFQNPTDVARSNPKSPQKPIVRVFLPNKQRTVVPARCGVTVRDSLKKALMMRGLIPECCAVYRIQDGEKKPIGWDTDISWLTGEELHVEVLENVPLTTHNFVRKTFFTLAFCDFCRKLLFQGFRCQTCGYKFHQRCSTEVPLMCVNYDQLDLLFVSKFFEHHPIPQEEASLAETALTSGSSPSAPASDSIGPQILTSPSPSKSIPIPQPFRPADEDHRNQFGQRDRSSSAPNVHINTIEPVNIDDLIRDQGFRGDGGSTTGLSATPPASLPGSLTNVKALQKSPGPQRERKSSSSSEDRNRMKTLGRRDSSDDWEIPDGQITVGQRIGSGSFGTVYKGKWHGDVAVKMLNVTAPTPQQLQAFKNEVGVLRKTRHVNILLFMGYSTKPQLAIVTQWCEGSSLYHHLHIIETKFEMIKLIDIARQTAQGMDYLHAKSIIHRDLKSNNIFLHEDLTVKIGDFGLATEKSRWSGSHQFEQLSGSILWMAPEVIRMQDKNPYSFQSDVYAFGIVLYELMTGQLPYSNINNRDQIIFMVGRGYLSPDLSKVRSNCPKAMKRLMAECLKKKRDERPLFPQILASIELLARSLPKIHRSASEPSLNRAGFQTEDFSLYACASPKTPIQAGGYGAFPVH
T4 sequence (Q9P286 whole entry): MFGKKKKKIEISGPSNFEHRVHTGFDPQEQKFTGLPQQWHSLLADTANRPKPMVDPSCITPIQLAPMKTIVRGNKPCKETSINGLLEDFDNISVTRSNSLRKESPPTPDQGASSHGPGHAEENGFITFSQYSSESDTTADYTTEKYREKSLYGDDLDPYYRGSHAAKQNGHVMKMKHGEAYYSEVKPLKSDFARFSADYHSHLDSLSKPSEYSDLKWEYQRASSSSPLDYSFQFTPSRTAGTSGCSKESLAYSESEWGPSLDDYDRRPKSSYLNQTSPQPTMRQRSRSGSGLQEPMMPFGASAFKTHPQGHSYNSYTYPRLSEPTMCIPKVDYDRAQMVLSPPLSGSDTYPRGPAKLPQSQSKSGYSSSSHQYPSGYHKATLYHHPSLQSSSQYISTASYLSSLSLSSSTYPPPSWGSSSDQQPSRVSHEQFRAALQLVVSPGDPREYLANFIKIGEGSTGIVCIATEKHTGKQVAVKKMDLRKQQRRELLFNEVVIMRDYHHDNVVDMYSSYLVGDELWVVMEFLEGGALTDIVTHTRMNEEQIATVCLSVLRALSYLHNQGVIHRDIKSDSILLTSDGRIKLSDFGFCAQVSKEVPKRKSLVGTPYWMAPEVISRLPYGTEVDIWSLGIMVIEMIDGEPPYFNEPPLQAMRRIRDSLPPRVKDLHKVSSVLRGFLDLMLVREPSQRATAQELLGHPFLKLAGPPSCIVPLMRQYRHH
T5 sequence (P07949 29-1114 M918T): as the sequence (P07949 29-1114) above, with M890T counted along it

## Fc1ccc(-c2c(-c3ccncc3)[nH]c3nccnc23)cc1 [Compound 122]
EGFR(L747-T751del,Sins)
  % Competition: 97%
CAMKIα
  competition: < 50%
BRAF(V600E); BRAF(V600E), 10 µM, read-out: % Competition
  inhibition at 10 µM: 97%
MARK2; MARK2, 10 µM, read-out: % Competition
  inhibition at 10 µM: 77%
PAK7; PAK7, 10 µM, read-out: % Competition
  inhibition at 10 µM: 86%
RET(M918T); RET(M918T), 10 µM, read-out: % Competition
  inhibition at 10 µM: 68%
ERK2; ERK2, 10 µM, read-out: % Competition
  inhibition at 10 µM: 87%
ERK4; ERK4, 10 µM, read-out: % Competition
  inhibition at 10 µM: 68%
EGFR(L858R)
  % Competition: 98%
PHKG2; PHKG2, 10 µM, read-out: % Competition
  inhibition at 10 µM: 91%
RET; RET, 10 µM, read-out: % Competition
  inhibition at 10 µM: 68%
CLK2; CLK2, 10 µM, read-out: % Competition
  inhibition at 10 µM: 97%
TGFBR1; TGFBR1, 10 µM, read-out: % Competition
  inhibition at 10 µM: 91%
PRKCQ; PRKCQ (PKC θ), 10 µM, read-out: % Competition
  inhibition at 10 µM: 78%
JNK3
  % Competition: 88%

## CC(O)CNc1cc(-c2[nH]c3cccnc3c2-c2ccc(F)cc2)ccn1 (stereo not shown) [Compound 140]
EGFR(L747-T751del,Sins)
  % Competition: 90%
CAMKIα
  competition: < 50%
BRAF(V600E); read-out: % Competition
  inhibition at 10 µM: 78%
MARK2; read-out: % Competition
  inhibition at 10 µM: < 50%
PAK7; read-out: % Competition
  inhibition at 10 µM: < 50%
RET(M918T); read-out: % Competition
  inhibition at 10 µM: < 50%
ERK2; read-out: % Competition
  inhibition at 10 µM: < 50%
ERK4; read-out: % Competition
  inhibition at 10 µM: < 50%
EGFR(L858R)
  % Competition: 84%
PHKG2; read-out: % Competition
  inhibition at 10 µM: < 50%
RET; read-out: % Competition
  inhibition at 10 µM: < 50%
CLK2; read-out: % Competition
  inhibition at 10 µM: < 50%
TGFBR1; read-out: % Competition
  inhibition at 10 µM: < 50%
PRKCQ; PRKCQ (PKC θ), 10 µM
  % Competition: <50%
PRKCQ; read-out: % Competition
  inhibition at 10 µM: < 50%
JNK3
  % Competition: 83%

## Fc1ccc(-c2c(-c3ccncc3)[nH]c3nccnc23)cc1 [RO1155697-000-005]
EGFR(L747-T751del,Sins); compound concentration 10 uM
  Percent Competition: 97%
CAMKIα; CAMK1, compound concentration 10 uM, read-out: Percent Competition
  inhibition at 10 µM: < 50%
BRAF(V600E); BRAF(V600E), compound concentration 10 uM, read-out: Percent Competition
  inhibition at 10 µM: 97%
MARK2; MARK2, compound concentration 10 uM, read-out: Percent Competition
  inhibition at 10 µM: 77%
PAK7; PAK7, compound concentration 10 uM, read-out: Percent Competition
  inhibition at 10 µM: 86%
RET(M918T); RET(M918T), compound concentration 10 uM, read-out: Percent Competition
  inhibition at 10 µM: 68%
ERK2; ERK2, compound concentration 10 uM, read-out: Percent Competition
  inhibition at 10 µM: 87%
ERK4; ERK4, compound concentration 10 uM, read-out: Percent Competition
  inhibition at 10 µM: 68%
EGFR(L858R); compound concentration 10 uM
  Percent Competition: 98%
PHKG2; PHKG2, compound concentration 10 uM, read-out: Percent Competition
  inhibition at 10 µM: 91%
RET; RET, compound concentration 10 uM, read-out: Percent Competition
  inhibition at 10 µM: 68%
CLK2; CLK2, compound concentration 10 uM, read-out: Percent Competition
  inhibition at 10 µM: 97%
TGFBR1; TGFBR1, compound concentration 10 uM, read-out: Percent Competition
  inhibition at 10 µM: 91%
PRKCQ; PRKCQ, compound concentration 10 uM, read-out: Percent Competition
  inhibition at 10 µM: 78%
JNK3; compound concentration 10 uM
  Percent Competition: 88%
